Measured values as given in patent publication US11528909B2, “Method of controlling nematodes in agricultural crops” (priority 2020, dated 2022).

Key:
[1] = test system: soybean cyst nematode J2s; test: Soybean cyst nematode J2 treatment in Petri dish (cuticle covering, molting, death); assay type: in vivo; settings: 0.25% Composition in DI water; ten freshly hatched J2s per dish, three replicates
[2] = test system: soybean cyst nematode J2s; test: as above; assay type: in vivo; settings: for MEAN SCN Covered Cuticle / MEAN SCN Dead J2s: ten freshly hatched J2s per dish, three replicates
Source text: Different developmental stages of soybean cyst nematode were targeted for treatment in soil. Soybean cyst nematode has an egg stage, four juvenile stages (samples J1 to J4), adult male and female stages. From J1 to adult development, during each development stage, the nematode undergoes a molt, that is, a shedding of the outside cuticle and forming a new cuticle.
Ten freshly hatched J2s were removed from pure culture and added to three different concentrations (0.5 weight %, […], and 0.12 weight % of Composition solution in a […] Petri dish containing DI water. Composition is (CH3O)3Si(CH2)3N^+ C18H37(CH3)2 Cl^−.
Observations were made over time under an inverted microscope and compound microscope and for both soybean cyst nematode in Composition and also in just DI water which were replicated three times.

CCCCCCCCCCCCCCCCCC[N+](C)(C)CCC[Si](OC)(OC)OC.[Cl-] [Composition, 3-(trimethoxysilyl)-propyldimethyloctadecyl ammonium chloride]
MEAN SCN Covered Cuticle [1]: 5.16
MEAN SCN Dead J2s [1]: 7.66
MEAN SCN Covered Cuticle ([2]; 0.12% Composition in DI water): 5.3
MEAN SCN Dead J2s ([2]; 0.12% Composition in DI water): 6.66
MEAN SCN Covered Cuticle ([2]; 0.5% Composition in DI water): 5.16
MEAN SCN Dead J2s ([2]; 0.5% Composition in DI water): 8.00
Microscopic observation of J2s after one day ([2]; all concentrations, after one day): accumulates on the cuticle of J2s
Microscopic observation of J2s on the second day ([2]; all concentrations, second day): J2s shed the cuticle
Statistical effect on soybean cyst nematode J2s (covered cuticles and dead nematodes versus treatment) ([2]; all tested concentrations): significantly affects the soybean cyst nematode J2s
Overall effect on the nematode in vitro ([2]; in vitro): cuticle disruption and therefore accelerated molting of the nematode in vitro and ultimate death of the nematodes
